Experimental data from patent publication US4315023A, “1-Phenethylimidazole derivatives” (Westwood Pharmaceuticals, Inc., priority 1980, dated 1982).

Legend:
S. faecalis = assay: in vitro antibacterial activity (MIC), S. faecalis; format: cell-based, Streptococcus faecalis; conditions: Enterococcus faecalis; Nutrient Broth
Streptococcus pyogenes = assay: in vitro antibacterial activity (MIC), S. pyogenes; format: cell-based; conditions: 50% Nutrient Broth + 5% human serum
Candida albicans = Candida albicans induced vaginal infection in mice; format: in vivo, female mice; conditions: for Score, Determination C / Score, Determination D / Score, Mean / Score, Determination A / Score, Determination B: score 0-4
Experimental: A majority of the compounds of formula 3 were evaluated together with the prior art compound of formula 2 in a Candida albicans induced vaginal infection in mice and a Trichophyton quinekeanum induced skin infection in guinea pigs. Sabouraud broth was inoculated with Candida albicans and the inoculum incubated for two days at 28° C. on a rotary shaker. Groups of four to five female mice weighing between 18-21 grams were infected intravaginally with a 0.01 ml portion of the cell suspension containing 10^8 cells/ml on day 0. The mice were treated subcutaneously with 0.5 mg of estradiol benzoate three days before and four days after infection. The test compounds were suspended in 1% carboxymethyl cellulose and 0.02 ml of the suspension was instilled intravaginally from day 0 (four hours after infection) to day 4 (5 applications). On day 7, vaginal exudate was taken by a thin glass rod and streaked on a YGP agar plate containing 100 mcg/ml of chloramphenicol. The plate was incubated for two days at 28° C. […] In the following Table I the antifungal activity of the test compound is reported as the EC50 value, which is the percentage drug concentration giving 50% of the score of untreated control animals. The EC50 was calculated by the method of least squares (K. Brounlee: Statistical Theory and Methodology in Science and Engineering, pages 345-349, Wiley Press, New York, 1965). In Table II a more detailed comparison on the in vivo antifungal activities of compound 3a and the isomeric prior art compound 2 are shown together with the data for compound 3b.

Staphylococcus aureus = assay: in vitro antibacterial activity (MIC), S. aureus; format: cell-based; conditions: Nutrient Broth
Trichophyton quinekeanum = Trichophyton quinekeanum induced skin infection in guinea pigs; format: in vivo, male guinea pigs; conditions: for Score, Determ. F / Score, Determ. G / Score, Mean: lesion score 0-4
Experimental: In the guinea pig skin infection test, Trichophyton quinekeanum was cultured on a YGP agar slant at 28° C. for 10 days. Spores were collected from the mycelial mat and suspended in Sabouraud broth containing 2% of Tween 80. Groups of 3 male guinea pigs weighing between 400-500 g were used for each dose of test compound. The flanks of the animals were depilated and injured with sandpaper. The injured area was inoculated and rubbed with a glass rod on day 0 with 0.2 ml of the spore suspension containing 10^8 CFU/ml. The test compound was combined with a 1:1 mixture of polyethylene glycol 400 and 4000, and 0.3 ml of the ointment was applied to the infected area on day 1, 3 and 5. Lesions were examined on day 7 and scored as follows: 0, normal; 1, erythema; 2, erythema with whitish area; 3, erythema and numerous whitish areas; 4, erythema with confluent scaling and whitish pateches. A compound showing a mean score of 1.5 or less was considered active.
In the following Table I the antifungal activity of the test compound is reported as the EC50 value, which is the percentage drug concentration giving 50% of the score of untreated control animals. The EC50 was calculated by the method of least squares (K. Brounlee: Statistical Theory and Methodology in Science and Engineering, pages 345-349, Wiley Press, New York, 1965). In Table II a more detailed comparison on the in vivo antifungal activities of compound 3a and the isomeric prior art compound 2 are shown together with the data for compound 3b.
Treatment: 5 applications (day 0 to 4) against candida vaginal infection
and 3 applications (day 1, 3 and 5) against trichophyton skin infection

Streptococcus pneumoniae = assay: in vitro antibacterial activity (MIC), S. pneumoniae; format: cell-based; conditions: 50% Nutrient Broth + 5% human serum

Cl.Clc1ccc(CSCSC(Cn2ccnc2)c2ccc(Cl)cc2Cl)cc1 (centres unmarked) [Compound 3b, 1-[2-(4-Chlorobenzylthiomethylthio)-2-(2,4-dichlorophenyl)ethyl]-1H-imidazole hydrochloride]
MIC (S. faecalis): > 63 µg/mL
MIC (Streptococcus pyogenes): > 63 µg/mL
EC50, Candida Vaginal Infection (Candida albicans; Table I, percentage drug concentration giving 50% of the score of untreated control, intravaginal): 0.0011%
EC50 (%) (95% CL), Candida vaginal infection (Candida albicans; Table II, N = 5, 5 applications day 0 to 4): 0.0011%
Score, Determination C (Candida albicans; conc. 0.0003%): 1.6
Score, Determination D (Candida albicans; conc. 0.0003%): 3.3
Score, Mean (Candida albicans; conc. 0.0003%): 2.5
Score, Determination A (Candida albicans; conc. 0.001%): 3.0
Score, Determination C (Candida albicans; conc. 0.001%): 1.6
Score, Determination D (Candida albicans; conc. 0.001%): 0.4
Score, Mean (Candida albicans; conc. 0.001%): 1.7
Score, Determination A (Candida albicans; conc. 0.003%): 0.4
Score, Determination B (Candida albicans; conc. 0.003%): 2.0
Score, Determination C (Candida albicans; conc. 0.003%): 2.2
Score, Determination D (Candida albicans; conc. 0.003%): 0.2
Score, Mean (Candida albicans; conc. 0.003%): 1.2
Score, Determination A (Candida albicans; conc. 0.01%): 1.4
Score, Determination B (Candida albicans; conc. 0.01%): 0.6
Score, Determination C (Candida albicans; conc. 0.01%): 1.4
Score, Determination D (Candida albicans; conc. 0.01%): 0
Score, Mean (Candida albicans; conc. 0.01%): 0.85
Score, Determination A (Candida albicans; conc. 0.03%): 0
Score, Determination B (Candida albicans; conc. 0.03%): 0.8
Score, Determination C (Candida albicans; conc. 0.03%): 2.4
Score, Determination D (Candida albicans; conc. 0.03%): 0.8
Score, Mean (Candida albicans; conc. 0.03%): 1.0
Score, Determination A (Candida albicans; conc. 0.1%): 0.2
Score, Determination B (Candida albicans; conc. 0.1%): 0
Score, Mean (Candida albicans; conc. 0.1%): 0.1
Score, Determination A (Candida albicans; conc. 0.3%): 0
Score, Determination B (Candida albicans; conc. 0.3%): 0
Score, Mean (Candida albicans; conc. 0.3%): 0
MIC (Staphylococcus aureus; Strain A): > 63 µg/mL
MIC (Staphylococcus aureus; Strain B): > 63 µg/mL
MIC (Staphylococcus aureus; Strain C): > 63 µg/mL
EC50, Trichophyton Skin Infection (Trichophyton quinekeanum; Table I, percentage drug concentration giving 50% of the score of untreated control, topical ointment): 0.053%
EC50 (%) (95% CL), Trichophyton skin infection (Trichophyton quinekeanum; Table II, N = 4, 3 applications day 1, 3 and 5): 0.053%
Score, Determ. F (Trichophyton quinekeanum; conc. 0.03%): 3.5
Score, Determ. G (Trichophyton quinekeanum; conc. 0.03%): 1.3
Score, Mean (Trichophyton quinekeanum; conc. 0.03%): 2.4
Score, Determ. F (Trichophyton quinekeanum; conc. 0.1%): 1.0
Score, Determ. G (Trichophyton quinekeanum; conc. 0.1%): 0.3
Score, Mean (Trichophyton quinekeanum; conc. 0.1%): 0.7
Score, Determ. F (Trichophyton quinekeanum; conc. 0.3%): 0.3
Score, Determ. G (Trichophyton quinekeanum; conc. 0.3%): 0.3
Score, Mean (Trichophyton quinekeanum; conc. 0.3%): 0.3
MIC (Streptococcus pneumoniae): > 63 µg/mL
